The source made the active and inactive calls. No cut-off for these calls is given here.

For one data set, the system named is HEK293. In words: Cytotoxicity against HEK293 cells at 100 uM incubated for 24 hrs by MTT assay. The following applies: human, hek293, 24 h. The format is toxicity, cell-based.
In data set [1] the target is T1, Sodium/glucose cotransporter 2 (Homo sapiens) (UniProt P31639).
T1 sequence (whole entry): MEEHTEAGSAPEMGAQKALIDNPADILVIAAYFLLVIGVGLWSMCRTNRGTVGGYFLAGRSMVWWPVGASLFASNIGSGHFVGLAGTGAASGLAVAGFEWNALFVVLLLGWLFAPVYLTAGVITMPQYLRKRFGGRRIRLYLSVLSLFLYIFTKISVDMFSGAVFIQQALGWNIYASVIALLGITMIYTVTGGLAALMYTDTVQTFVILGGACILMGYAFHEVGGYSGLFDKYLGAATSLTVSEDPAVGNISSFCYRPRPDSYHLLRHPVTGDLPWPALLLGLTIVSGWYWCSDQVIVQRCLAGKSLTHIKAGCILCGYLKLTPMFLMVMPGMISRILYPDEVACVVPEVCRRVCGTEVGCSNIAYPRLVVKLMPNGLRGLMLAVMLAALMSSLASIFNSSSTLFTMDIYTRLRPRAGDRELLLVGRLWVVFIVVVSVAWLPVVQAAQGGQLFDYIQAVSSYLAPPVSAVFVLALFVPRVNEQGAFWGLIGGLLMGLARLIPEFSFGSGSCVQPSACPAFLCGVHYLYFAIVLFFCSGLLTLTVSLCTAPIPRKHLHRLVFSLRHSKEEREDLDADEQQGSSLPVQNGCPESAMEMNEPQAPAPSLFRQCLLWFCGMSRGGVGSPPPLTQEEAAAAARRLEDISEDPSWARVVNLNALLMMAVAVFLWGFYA
In words: Inhibition of SGLT2 in HEK293 cells assessed as 2-NBDG uptake at 100 uM preincubated for 1 hr followed by 2-NBDG addition and measured after 1 hr relative to control. The format is cell-based. As to conditions: time 2.0 hrs.

Data set [2] has as its target T2, Sodium/glucose cotransporter 2 (Homo sapiens, UniProt P31639).
T2 sequence (P31639 whole entry): T1 sequence (whole entry)
In words: Inhibition of SGLT2 (unknown origin).

The subject of data set [3] is Mus musculus. Put plainly: Antidiabetic activity against C57BL/6J mouse assessed as decrease in blood glucose level at 3 mg/kg, po measured upto 8 hrs by glucometer analysis. The format is functional, organism-based.
Data set [4] has as its system Mus musculus. In words: Antidiabetic activity against C57BL/6J mouse assessed as decrease in renal glucose level at 3 mg/kg, po measured upto 8 hrs by glucometer analysis. The format is functional, organism-based.
In data set [5] the target is T1, Sodium/glucose cotransporter 2 (Homo sapiens). In words: Inhibition of SGLT2 (unknown origin) at 100 uM relative to control.
The nature of data set [6]: AUCinfinity in mouse at 3 mg/kg, po by LC analysis. The class given is ADME, organism-based. Set-up: dose 3 mg/kg, route po. As to conditions: in vivo.
Data set [7] in a line: Half life in mouse at 3 mg/kg, po by LC analysis. The format is ADME, organism-based. The following applies: in vivo.
Data set [8] in a line: Tmax in mouse at 3 mg/kg, po by LC analysis. The format is ADME, organism-based. The following applies: in vivo.
The nature of data set [9]: Cmax in mouse at 3 mg/kg, po by LC analysis. The format is ADME, organism-based. Set-up: dose 3 mg/kg, route po. The following applies: in vivo.

A word on the inhibition: it is the change of the read-out against control, counted positive when it falls. Regarding `Cc1ccc(S[C@@H]2O[C@H](CO)[C@@H](O)[C@H](O)[C@H]2O)cc1Cc1ccc(-c2ccc(F)cc2)s1`, the Activity entry with HEK293 was “Non-Toxic”. In addition, in data set [1], the inhibition was 54%.
One may read the IC50 as the point on the concentration scale where inhibition reaches its midpoint. Read a low IC50 as inhibition by little substance. For the molecule `Cc1ccc([C@@H]2O[C@H](CO)[C@@H](O)[C@H](O)[C@H]2O)cc1Cc1ccc(-c2ccc(F)cc2)s1` [CANAGLIFLOZIN ANHYDROUS], the inhibition in [1] was above 90%. The molecule also yielded an IC50 in [2] of 2.4 nM.
Turning to `OC[C@H]1O[C@@H](c2ccc(Cl)c(Cc3ccc(O[C@H]4CCOC4)cc3)c2)[C@H](O)[C@@H](O)[C@@H]1O`, the outcome in the data set on Mus musculus [3] and in the data set on Mus musculus [4] was Active.
As to `COc1ccc(Cc2ccccc2S[C@@H]2O[C@H](CO)[C@@H](O)[C@H](O)[C@H]2O)cc1`, the Activity result in the data set on HEK293 is “Non-Toxic”. In data set [1], the inhibition is above 90%. In [2], this molecule displayed an IC50 of 5.9 nM.
Turning to `Cc1cccc(S[C@@H]2O[C@H](CO)[C@@H](O)[C@H](O)[C@H]2O)c1Cc1ccc(-c2ccc(F)cc2)s1`, the Activity entry in the data set with HEK293 is on record as “Non-Toxic”. Also, in data set [1], the inhibition is above 90%. In [2], half-maximal inhibition (IC50) was put at 2.5 nM.
In the case of `CCOc1ccc(Cc2cc(S[C@@H]3O[C@H](CO)[C@@H](O)[C@H](O)[C@H]3O)ccc2Cl)cc1`, the Activity entry in the data set on HEK293 is given as “Non-Toxic”. For the same molecule, in data set [1], the inhibition was found to be 57%.
For the molecule `CCOc1ccc(Cc2c(Cl)cccc2S[C@@H]2O[C@H](CO)[C@@H](O)[C@H](O)[C@H]2O)cc1`, the Activity entry in the data set on HEK293 is listed as “Non-Toxic”. For the same molecule, the inhibition in data set [1] was above 90%. This molecule gave a 50% inhibitory concentration (IC50) in [2] of 2.6 nM.
As to `CCOC(=O)OC[C@H]1O[C@@H](Oc2ccccc2Cc2ccc(OC)cc2)[C@H](O)[C@@H](O)[C@@H]1O` [SERGLIFLOZIN ETABONATE], in data set [2], half-maximal inhibition (IC50) required 7.5 nM.
On to `COc1ccc(Cc2ccccc2O[C@@H]2O[C@H](CO)[C@@H](O)[C@H](O)[C@H]2O)cc1` [SERGLIFLOZIN A], for which inhibition in data set [2] was half-maximal at 7.5 nM (IC50).
In data set [2], `Cc1cc(O)c(C(=O)CCc2ccc3occc3c2)c(O[C@@H]2O[C@H](CO)[C@@H](O)[C@H](O)[C@H]2O)c1` registered an IC50 of 4.4 nM.
Consider `OC[C@H]1O[C@@H](Sc2ccc(Cl)c(Cc3ccc(O[C@H]4CCOC4)cc3)c2)[C@H](O)[C@@H](O)[C@@H]1O`, for which, in the data set with HEK293, the Activity entry is on record as “Non-Toxic”. Further, the inhibition in data set [1] and in data set [5] was 62% each time.
The term AUC(0-inf) denotes the area under the concentration-time curve extrapolated to infinity. Read a high AUC(0-inf) as more exposure. One may read the half-life as the time in which the quantity being followed falls by half. Read a low half-life as rapid decline. What is called Tmax is the time from dosing to the highest level. The Cmax is the highest concentration seen after dosing. Take `OC[C@H]1O[C@@H](Sc2cccc(Cl)c2Cc2ccc(O[C@H]3CCOC3)cc2)[C@H](O)[C@@H](O)[C@@H]1O`: the outcome in the data set on Mus musculus [3] and in the data set with Mus musculus [4] was Active. Moreover, the Activity result in the data set with HEK293 is reported as “Non-Toxic”. In addition, the AUC(0-inf) in data set [6] is 12800 ng·h/mL. In addition, in data set [7], the half-life was 3.67 h. Moreover, in data set [8], the Tmax was 1 h. Further, the inhibition in data set [1] was above 90%. Further, the peak level in data set [9] (Cmax) was 4200 ng/mL. In [2], this molecule displayed an IC50 of 2 nM.

Source of the values: ChEMBL document CHEMBL5365435, “Design, Synthesis, and Biological Evaluation of Thioglucoside Analogues of Gliflozin as Potent New Gliflozin Drugs” (J Med Chem, 2023).
